According to patent US20110306597A1, “Nicotinamide Derivatives” (priority 2008, published 2011):

Target: human recombinant H-PGDS (Homo sapiens, UniProt O60760)
Experiment: Fluorescence Intensity h-PGDS TBA Enzyme Assay
Format: biochemical
Details: 1:175,000 human recombinant H-PGDS, highest inhibitor concentration typically 1 μM
In short: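 Readout is PGH2 depletion: after a 42 s reaction with 5.0 μM PGH2 and 2.5 mM glutathione (pH 8.0 Tris, 10 min inhibitor preincubation), Fe(II) converts leftover PGH2 to MDA, which forms a fluorescent TBA complex. IC50s come from 11-point, 3-fold duplicate curves, 4-parameter fit.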

Chain of human recombinant H-PGDS (O60760 whole entry): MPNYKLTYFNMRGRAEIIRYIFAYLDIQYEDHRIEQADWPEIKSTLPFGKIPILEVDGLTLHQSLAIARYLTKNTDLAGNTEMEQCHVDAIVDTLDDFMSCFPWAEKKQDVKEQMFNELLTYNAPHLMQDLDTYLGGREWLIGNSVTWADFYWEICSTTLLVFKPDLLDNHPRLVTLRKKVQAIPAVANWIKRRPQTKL

Going from CC(C)N1CCC(CNC(=O)c2ccc(-c3cccc(F)c3)nc2)CC1 [Example 117, 6-(3-Fluorophenyl)-N-[(1-isopropylpiperidin-4-yl)methyl]nicotinamide] to CC(NC(=O)c1ccc(-c2cccc(F)c2)nc1)C1CC1 (stereo not shown) [Example 128, N-(1-Cyclopropylethyl)-6-(3-fluorophenyl)nicotinamide], the IC50 falls from 108 nM to 28.3 nM (3.8-fold).

Compared with O=C(NCCCc1ccccn1)c1ccc(-c2cccc(F)c2)nc1 [Example 118, 6-(3-Fluorophenyl)-N-(3-pyridin-2-ylpropyl)nicotinamide], O=C(NCCCCO)c1ccc(-c2cccc(F)c2)nc1 [Example 149, 6-(3-Fluorophenyl)-N-(4-hydroxybutyl)nicotinamide] is 3.8-fold higher in IC50: 5.3 nM for the first, 20.1 nM for the second. The first is the more potent here.

Going from Cc1nccn1CCNC(=O)c1ccc(-c2cccc(F)c2)nc1 [Example 119, 6-(3-Fluorophenyl)-N-[2-(2-methyl-1H-imidazol-1-yl)ethyl]nicotinamide] to Cc1ncsc1CCNC(=O)c1ccc(-c2cccc(F)c2)nc1 [Example 132, 6-(3-Fluorophenyl)-N-[2-(4-methyl-1,3-thiazol-5-yl)ethyl]nicotinamide], the IC50 falls from 59.8 nM to 6.36 nM (9.4-fold).

First: O=C(NC1C(=O)NCCc2ccccc21)c1ccc(-c2cccc(F)c2)nc1 (stereo not shown) [Example 120, 6-(3-Fluorophenyl)-N-(2-oxo-2,3,4,5-tetrahydro-1H-3-benzazepin-1-yl)nicotinamide]
Second: O=C(NC1CCCCNC1=O)c1ccc(-c2cccc(F)c2)nc1 (stereo not shown) [Example 136, 6-(3-Fluorophenyl)-N-(2-oxoazepan-3-yl)nicotinamide]
The IC50 of the first is 19-fold higher: 67.3 nM for the first, 3.51 nM for the second. The second is the more potent here.

Going from CN1CCC(O)(CNC(=O)c2ccc(-c3cccc(F)c3)nc2)CC1 [Example 121, 6-(3-Fluorophenyl)-N-[(4-hydroxy-1-methylpiperidin-4-yl)methyl]nicotinamide] to O=C(NCC1(O)CCC1)c1ccc(-c2cccc(F)c2)nc1 [Example 141, 6-(3-Fuorophenyl)-N-[(1-hydroxycyclobutyl)methyl] nicotinamide], the IC50 falls from 129 nM to 34.5 nM (3.7-fold). The second is the more potent here.

First: Cc1cc(-c2cnc(C(C)(C)C)nc2CNC(=O)c2ccc(-c3cccc(F)c3)nc2)on1 [Example 122, N-{[2-tert-Butyl-5-(3-methylisoxazol-5-yl)pyrimidin-4-yl]methyl}-6-(3-fluorophenyl)nicotinamide]
Second: CC(C)c1cc(CNC(=O)c2ccc(-c3cccc(F)c3)nc2)on1 [Example 127, 6-(3-Fluorophenyl)-N-[(3-isopropylisoxazol-5-yl)methyl]nicotinamide]
The IC50 of the first is higher: over 1000 nM for the first, 30.3 nM for the second. The second is the more potent here.

Compared with O=C(NC(c1cccc(Cl)c1)c1nn[nH]n1)c1ccc(-c2cccc(F)c2)nc1 (stereo not shown) [Example 123, N-[(3-Chlorophenyl)(2H-tetrazol-5-yl)methyl]-6-(3-fluorophenyl)nicotinamide], O=C(NCc1ccc(Cl)c(Cl)c1)c1ccc(-c2cccc(F)c2)nc1 [Example 154, N-(3,4-Dichlorobenzyl)-6-(3-fluorophenyl)nicotinamide] is 2.8-fold higher in IC50: 15.6 nM for the first, 43.7 nM for the second. The first is the more potent here.

First: Cc1cc(C(F)(F)F)nc(CCNC(=O)c2ccc(-c3cccc(F)c3)nc2)n1 [Example 124, 6-(3-Fluorophenyl)-N-{2-[4-methyl-6-(trifluoromethyl)pyrimidin-2-yl]ethyl}nicotinamide]
Second: Cc1cc(C)nc(CCNC(=O)c2ccc(-c3cccc(F)c3)nc2)n1 [Example 143, N-[2-(4,6-Dimethylpyrimidin-2-yl)ethyl]-6-(3-fluorophenyl)nicotinamide]
The IC50 of the first is 1.7-fold higher: 18.3 nM for the first, 11 nM for the second.

Going from Cc1c(C(C)NC(=O)c2ccc(-c3cccc(F)c3)nc2)cnn1C (stereo not shown) [Example 125, N-[1-(1,5-Dimethyl-1H-pyrazol-4-yl)ethyl]-6-(3-fluorophenyl)nicotinamide] to Cc1nnc(C(C)NC(=O)c2ccc(-c3cccc(F)c3)nc2)[nH]1 (stereo not shown) [Example 138, 6-(3-Fluorophenyl)-N-[1-(5-methyl-4H-1,2,4-triazol-3-yl)ethyl]nicotinamide], the IC50 rises from 23.9 nM to 287 nM (12-fold).

First: CC(Cn1cccn1)NC(=O)c1ccc(-c2cccc(F)c2)nc1 (stereo not shown) [Example 126, 6-(3-Fluorophenyl)-N-[1-methyl-2-(1H-pyrazol-1-yl)ethyl]nicotinamide]
Second: CCOC(=O)CC(C)NC(=O)c1ccc(-c2cccc(F)c2)nc1 (stereo not shown) [Example 157, Ethyl 3-({[6-(3-fluorophenyl)pyridin-3-yl]carbonyl}amino)butanoate]
The IC50 of the first is 3.8-fold higher: 33.8 nM for the first, 8.79 nM for the second. The second is the more potent here.

Going from C[C@H](O)CNC(=O)c1ccc(-c2cccc(F)c2)nc1 [Example 129, 6-(3-Fluorophenyl)-N-[(2S)-2-hydroxypropyl]nicotinamide] to C=CCNC(=O)c1ccc(-c2cccc(F)c2)nc1 [Example 135, N-Allyl-6-(3-fluorophenyl)nicotinamide], the IC50 falls from 92 nM to 46.5 nM (2-fold).

Cc1c[nH]c(CCNC(=O)c2ccc(-c3cccc(F)c3)nc2)n1 [Example 130, 6-(3-Fluorophenyl)-N-[2-(4-methyl-1H-imidazol-2-yl)ethyl]nicotinamide] and Cc1cc(C)n(CCCNC(=O)c2ccc(-c3cccc(F)c3)nc2)n1 [Example 131, N-[3-(3,5-Dimethyl-1H-pyrazol-1-yl)propyl]-6-(3-fluorophenyl)nicotinamide] are within 1.5-fold of each other in IC50: 39.4 nM for the first, 27.2 nM for the second.

Compared with O=C(NCc1nc(-c2ccccc2)no1)c1ccc(-c2cccc(F)c2)nc1 [Example 133, 6-(3-Fluorophenyl)-N-[(3-phenyl-1,2,4-oxadiazol-5-yl)methyl]nicotinamide], O=C(NCc1coc(-c2ccccc2)n1)c1ccc(-c2cccc(F)c2)nc1 [Example 152, 6-(3-Fluorophenyl)-N-[(2-phenyl-1,3-oxazol-4-yl)methyl]nicotinamide] is 13-fold lower in IC50: 59.2 nM for the first, 4.49 nM for the second.

Compared with CC(C)(C)OCCNC(=O)c1ccc(-c2cccc(F)c2)nc1 [Example 134, N-(2-tert-Butoxyethyl)-6-(3-fluorophenyl)nicotinamide], CN(C)CCNC(=O)c1ccc(-c2cccc(F)c2)nc1 [Example 158, N-[2-(Dimethylamino)ethyl]-6-(3-fluorophenyl)nicotinamide] is 7.1-fold higher in IC50: 47.7 nM for the first, 337 nM for the second. The first is the more potent here.

Going from CCOC(=O)CCCCCNC(=O)c1ccc(-c2cccc(F)c2)nc1 [Example 137, Ethyl 6-({[6-(3-fluorophenyl)pyridin-3-yl]carbonyl}amino)hexanoate] to CCOC(=O)C(C)(C)NC(=O)c1ccc(-c2cccc(F)c2)nc1 [Example 145, Ethyl N-{[6-(3-fluorophenyl)pyridin-3-yl]carbonyl}-2-methylalaninate], the IC50 rises from 11.2 nM to 223 nM (20-fold). The first is the more potent here.

O=C(NCC1(O)CCSCC1)c1ccc(-c2cccc(F)c2)nc1 [Example 139, 6-(3-Fluorophenyl)-N-[(4-hydroxytetrahydro-2H-thiopyran-4-yl)methyl]nicotinamide] and O=C(NCC1(O)CCCC1)c1ccc(-c2cccc(F)c2)nc1 [Example 140, 6-(3-Fluorophenyl)-N-[(1-hydroxycyclopentyl)methyl] nicotinamide] are within 1.5-fold of each other in IC50: 39 nM for the first, 32 nM for the second.

Going from COCCN1CCC2(CC1)CC(NC(=O)c1ccc(-c3cccc(F)c3)nc1)CO2 (stereo not shown) [Example 142, 6-(3-Fluorophenyl)-N-[8-(2-methoxyethyl)-1-oxa-8-azaspiro[4.5]dec-3-yl]nicotinamide] to O=C(NC1COC2(CCN(c3nc4ccccc4[nH]3)CC2)C1)c1ccc(-c2cccc(F)c2)nc1 (stereo not shown) [Example 150, N-[8-(1H-Benzimidazol-2-yl)-1-oxa-8-azaspiro[4.5]dec-3-yl]-6-(3-fluorophenyl)nicotinamide], the IC50 falls from 25.2 nM to 2.88 nM (8.8-fold).

First: CN1CCN(CC(NC(=O)c2ccc(-c3cccc(F)c3)nc2)c2ccccc2)CC1 (stereo not shown) [Example 144, 6-(3-Fluorophenyl)-N-[2-(4-methylpiperazin-1-yl)-1-phenylethyl]nicotinamide]
Second: Cc1ccccc1CNC(=O)c1ccc(-c2cccc(F)c2)nc1 [Example 153, 6-(3-Fluorophenyl)-N-(2-methylbenzyl)nicotinamide]
The IC50 of the first is 36-fold higher: 109 nM for the first, 2.99 nM for the second.

O=C(NCc1nc2cc(F)ccc2[nH]1)c1ccc(-c2cccc(F)c2)nc1 [Example 146, N-[(5-Fluoro-1H-benzimidazol-2-yl)methyl]-6-(3-fluorophenyl)nicotinamide] and O=C(NC1CCN(Cc2ccc(Cl)c(Cl)c2)C1=O)c1ccc(-c2cccc(F)c2)nc1 (stereo not shown) [Example 160, N-[1-(3,4-Dichlorobenzyl)-2-oxopyrrolidin-3-yl]-6-(3-fluorophenyl)nicotinamide] are within 1.5-fold of each other in IC50: 34 nM for the first, 40.8 nM for the second.

Compared with COC(=O)[C@@H](NC(=O)c1ccc(-c2cccc(F)c2)nc1)[C@@H](C)O [Example 147, Methyl N-{[6-(3-fluorophenyl)pyridin-3-yl]carbonyl}-L-threoninate], CN(C)C(=O)CNC(=O)c1ccc(-c2cccc(F)c2)nc1 [Example 161, N-[2-(dimethylamino)-2-oxoethyl]-6-(3-fluorophenyl)nicotinamide] is 4.3-fold lower in IC50: 381 nM for the first, 88 nM for the second. The second is the more potent here.

Compared with O=C(NCCN1CCNC1=O)c1ccc(-c2cccc(F)c2)nc1 [Example 148, 6-(3-Fluorophenyl)-N-[2-(2-oxoimidazolidin-1-yl)ethyl]nicotinamide], O=C(NCCCN1CCCC1=O)c1ccc(-c2cccc(F)c2)nc1 [Example 156, 6-(3-Fluorophenyl)-N-[3-(2-oxopyrrolidin-1-yl)propyl]nicotinamide] is 2-fold lower in IC50: 32 nM for the first, 15.7 nM for the second.

Compared with Cc1ccccc1CNC(=O)c1ccc(-c2ccccc2)nc1 [Example 151, N-(2-Methylbenzyl)-6-phenylnicotinamide], CCOC(=O)CC(NC(=O)c1ccc(-c2cccc(F)c2)nc1)c1ccc(OC)cc1 (stereo not shown) [Example 162, Ethyl 3-({[6-(3-fluorophenyl)pyridin-3-yl]carbonyl}amino)-3-(4-methoxyphenyl)propanoate] is 10-fold higher in IC50: 1.88 nM for the first, 19.6 nM for the second.

Compared with CCOC(=O)C(CNC(=O)c1ccc(-c2cccc(F)c2)nc1)C1CCCC1 (stereo not shown) [Example 155, Ethyl 2-cyclopentyl-3-({[6-(3-fluorophenyl)pyridin-3-yl]carbonyl}amino)propanoate], CCOC(=O)C1(NC(=O)c2ccc(-c3cccc(F)c3)nc2)CCOCC1 [Example 159, Ethyl 4-({[6-(3-fluorophenyl)pyridin-3-yl]carbonyl}amino)tetrahydro-2H-pyran-4-carboxylate] is 66-fold higher in IC50: 5.9 nM for the first, 391 nM for the second. The first is the more potent here.
